In patent publication US7605280B2, “Anthraquinone and its derivatives” (Biostatus Limited, priority 1998, dated 2009):

How the values were obtained:
[1] = tested on: Lymphocytes; assay: FACScan (Cytometer C) flow cytometric analysis of DRAQ5-labelled cells; assay type: cell-based, human
Procedure: (§1) Suspension cultures were analysed by flow cytometry without washing. Human blood was obtained using routine venepuncture of a healthy donor and samples manipulated using standard haematological procedures for the isolation of mononuclear blood cells and surface antigen recognition using antibody panels (see Table 1).
(§2) Cells were analysed using one of four flow cytometers according to the excitation requirements. • Cytometer A: Single beam high power 647 nm krypton laser excitation: The system was a custom-built cytometer and incorporated an Innova 3000K krypton laser (Coherent Corp., Palo Alto, Calif., USA) tuned to the 647 nm line. Forward light scatter, 90° light scatter and fluorescence emissions were collected for 1×10^4 cells using the 90° light scatter parameter as the master signal. The optical system permitted the analysis of various fluorescence emission wavelengths including: >715 nm (termed low infra-red) and, as reported here >780 nm fluorescence (infra-red ). Forward and 90° light scatter were analysed for the identification of cell debris. Laser power was set at 200 mW and linear amplifiers were used for the fluorescence signals. The analysis optics included a 675 nm cold dichroic mirror, ambient laboratory temperature was approximately 12° C. and the sheath reservoir was maintained at 10° C. Filters were supplied by Melles Griot. Median, mean and mode parameters were calculated for the distribution of fluorescence intensity-values throughout a given cell population. In all experiments, median and mean values produced very similar results. Median values alone are reported since this parameter is less affected by the presence of highly fluorescent cells beyond the upper limit for quantification. • Cytometer B: Dual beam low power 633 nm/high power 488 nm laser excitation: The system was a FACS 440 cell sorter (Becton Dickinson Inc., Cowley, UK) incorporating a Spectra Physics argon ion laser (max 500 mW output), tuned to the 488 nm line (100 mW output), and a secondary Spectra Physics 156 helium-neon laser emitting at 633 nm (emitting <5 mW), with a temporal beam separation of about 30 μsec. Forward light scatter, 90° light scatter and fluorescence emissions were collected for 1×10^4 cells using the forward light scatter parameter as the master signal from the primary 488 nm beam, while side scatter was collected through a 488/10 nm band-pass filter. The analysis optics included: i) a cold dichroic mirror (transmitting >675 nm), ii) fluorescence from fluorescein excited by the 488 nm beam detected at a PMT guarded by a 535/15 nm band-pass filter with no signal delay, and iii) a red-sensitive PMT with an appropriate delay, additionally guarded by a 620 nm long-pass filter, to detect the transmitted beam of DRAQ5-associated fluorescence at wavelengths beyond 675 nm (high-red and extending into the infra red region of the spectrum) Forward and 90° light scatter were analysed to exclude any cell debris. All parameters were acquired at 256 channel resolution with Consort 30 software (Becton Dickinson) and subsequently analysed with WinMDI software (J. Trotter, La Jolla, Calif.). The system employed the same analysis optics when used in the single 488 nm beam mode but with no signal delay for the red-sensitive PMT. • Cytometer C: Single beam, low power 488 nm laser excitation: The system was a FACScan (Becton Dickinson; Inc., Cowley, UK) incorporating an argon ion laser (max 15 mW output), tuned to the 488 nm line. Forward light scatter, 90° light scatter and fluorescence emissions were collected for 1×10^4 cells using the forward light scatter parameter as the master signal. The standard analysis optics provided the FL1 […]/FL3 (red) PMT parameters with pulse analysis performed on the FL3 originating signals. • Cytometer D: Triple beam medium power 633 nm/medium power 488 nm/medium power multiline-UV laser excitation: […]

[2] = tested on: Granulocytes; assay: as above; assay type: cell-based, human; settings: 20 μM DRAQ5, 5 min
Procedure: as §1, §2

[3] = tested on: Monocytes; assay: as above; assay type: cell-based, human
Procedure: as §1, §2

[4] = Solubility; assay type: physicochemical
[5] = Preparation 3, 20 μM DRAQ5, 120 min
[6] = Preparation 3, 4.8 × 10^5/ml, 20 μM DRAQ5, 5 min
[7] = Preparation 3, 7.5 × 10^5/ml, 20 μM DRAQ5, 5 min
[8] = Preparation 3 Ficoll-isolated viable mononuclear blood cells, 2.5 × 10^5/ml, 20 μM DRAQ5, 5 min
[9] = Preparation 4 (Preparation 3 plus surface antigen analysis), 20 μM DRAQ5, 5 min
[10] = Preparation 5 whole blood, viable cells, 20 μM DRAQ5, 5 min
[11] = Preparation 6 whole blood, cells lysed and fixed, 20 μM DRAQ5, 5 min

CN(C)CCNc1ccc(O)c2c1C(=O)c1c(O)ccc(NCCN(C)C)c1C2=O [DRAQ5]
Mean fluorescence intensity (±sd) of gated population [1, 5]: 299.1 ± 23.9 | Mean fluorescence intensity (±sd) of gated population [1, 6]: 215.9 ± 26.3 | Mean fluorescence intensity (±sd) of gated population [1, 7]: 234.1 ± 27.0 | Mean fluorescence intensity (±sd) of gated population [1, 8]: 227.4 ± 24.5 | Mean fluorescence intensity (±sd) of gated population [1, 9]: 261.6 ± 26.3 | Mean fluorescence intensity (±sd) of gated population [1, 10]: 257.3 ± 35.0 | Mean fluorescence intensity (±sd) of gated population [1, 11]: 228.5 ± 28.5 | Mean fluorescence intensity (±sd) of gated population ([2]; Preparation 5 whole blood, viable cells): 248.4 ± 35.9 | Mean fluorescence intensity (±sd) of gated population ([2]; Preparation 6 whole blood, cells lysed and fixed): 254.3 ± 31.1 | Mean fluorescence intensity (±sd) of gated population [3, 5]: 342.2 ± 22.4 | Mean fluorescence intensity (±sd) of gated population [3, 6]: 301.8 ± 24.3 | Mean fluorescence intensity (±sd) of gated population [3, 7]: 311.0 ± 30.9 | Mean fluorescence intensity (±sd) of gated population [3, 8]: 302.9 ± 25.4 | Mean fluorescence intensity (±sd) of gated population [3, 9]: 317.9 ± 27.3 | Mean fluorescence intensity (±sd) of gated population [3, 10]: 274.6 ± 41.0 | Mean fluorescence intensity (±sd) of gated population [3, 11]: 240.2 ± 28.1 | enhanced staining potential of monocytes versus lymphocytes ([3]; Preparations 3 and 4): 1.14-1.4 fold | solubility [4]: soluble in biologically compatible solvents including water
